{"source": "patent US20250177367A1", "about": "“COMBINATION THERAPIES FOR MODULATION OF LIPID PRODUCTION” (Ohio State Innovation Foundation, priority 2022, published 2025)", "key": {"ASCT2": {"system": "ASCT2", "experiment": "ASCT2 expression (western blot of membrane extracts, immunofluorescence)", "format": "cell-based, human", "settings": "pimozide 5 μM with cholesterol 3 μg/ml, 24 hr", "text": "Transferring receptor-1(CD71), an integral membrane protein that mediates the uptake of transferrin-iron complexes, was used as a membrane loading control for ASCT2. […] Nuclei were stained with DAPI (blue)."}, "SREBP-1 and -2 cleavage": {"system": "SREBP-1 and -2 cleavage", "experiment": "SREBP activation by metabolites in H1299 or U87 cells (western blot, IF)", "format": "cell-based", "settings": "for SREBP-1 translocation into the nucleus: in the presence of glucose, without glutamine, 12 hr", "procedure": "FIG. 1C show the western blot analysis of whole lysates from H1299 or U87 cells after NH4Cl stimulation at the indicated doses for 12 hr. in the presence of glucose (5 mM) under serum-free culture conditions.\nNuclei were stained with DAPI (blue). Scale bars, 10 m. The nuclear intensity of SREBP-1 was quantified over 30 cells by ImageJ (mean±SEM) and shown below. Significance was determined by unpaired Student's t test. *p<0.05, ^sp<0.001, #p<0.0001; N.S. not significant.\nWestern Blot. Cells were lysed with RIPA buffer containing a protease inhibitor cocktail and phosphatase inhibitors. […] After blocking for 1.5 hr in 5% non-fat dried milk diluted by Tris-buffered saline containing 0.1% Tween 20, the membranes were incubated with various primary antibodies, followed by appropriate secondary antibodies conjugated to horseradish peroxidase.\nImmunofluorescence. Cells grown on coverslips were washed with PBS twice and fixed with 4% formaldehyde for 15 min, then permeabilized with 0.1% Triton X-100/PBS for 5 min and blocked by 3% bovine serum albumin for 30 min at room temperature. […] Cells were washed three times with PBS in a dark chamber."}, "[1]": {"system": "H1299 cells-derived xenograft", "experiment": "H1299-derived xenograft mouse model treated with CB-839", "format": "in vivo, mice", "settings": "CB-839 30 mg/kg, i.p., twice per day for 3 days", "procedure": "The treatment started when the tumor size reached 200 mm^3. […] Scale bars, 50 m. The expression levels were quantified by using ImageJ to analyze 4 images per tumor and 3 tumors in each group.\n(§1) Measures of Ammonia Levels in Tissues, Cells and bound to SCAP. To measure ammonia levels in tumors and normal tissues, 10 mg of tissues were collected and lysed through homogenization on ice in the ammonia assay buffer (100 l) from the commercial kit. The lysates were centrifuged at 20,000×g for 5 min at 4° C. and the ammonia levels in the supernatants were measured by the ammonia assay kit following the manufacturer's instructions (#ab83360, Abcam). For measurement of SCAP-bound ammonia, a total of 1.3×10^7 HEK293T cells was seeded in 15 cm dishes for 24 hr. The cells were transfected with GFP, GFP-SCAP wild-type, or D428A mutant together with myc-Insig1 plasmids for 24 hr, and then washed with PBS, followed by addition of fresh DMEM medium containing glucose (5 mM) and NH4Cl (4 mM) for 2 hr in the absence of glutamine. […]"}, "SREBP activation": {"system": "SREBP activation", "experiment": "Western blot of GBM30 cells treated with CB-839 with glutamine, glutamate or NH4Cl", "format": "cell-based, human", "settings": "12 hr", "procedure": "(§2) Western Blot. Cells were lysed with RIPA buffer containing a protease inhibitor cocktail and phosphatase inhibitors. The proteins were separated on 12% SDS-PAGE, and transferred onto an ECL nitrocellulose membrane (#1620112, Bio-Rad). After blocking for 1.5 hr in 5% non-fat dried milk diluted by Tris-buffered saline containing 0.1% Tween 20, the membranes were incubated with various primary antibodies, followed by appropriate secondary antibodies conjugated to horseradish peroxidase."}, "H1299 and U87 cells": {"system": "H1299 and U87 cells", "experiment": "Ammonia, glutamate and α-KG levels after GPNA or CB-839", "format": "cell-based", "settings": "for levels of glutamate, ammonia, and α-KG in cells and in cell culture media: GPNA 5 mM or CB-839 100 nM, 12 hr; for glutamine consumption: H1299 and U87 cells", "procedure": "The results are presented as mean±SEM (n=3). H1299 or U87 cells were cultured in RMPI 1640 or DMEM medium supplemented with 5% FBS for 24 hr. Cells then were washed with PBS once and treated with/without GPNA (5 mM) or CB-839 (100 nM) in the presence of glutamine (4 mM) and glucose (5 mM) under the fresh serum-free RMPI 1640 or DMEM medium for 12 hr before analysis. Cell culture conditions prior to treatment are the same for the subsequent panels unless otherwise stated.\nAnalysis of Metabolites in Cell Culture Medium. Metabolite levels in culture medium, including glucose, glutamine, lactate, glutamate, and NH4+, were measured using the Nova Bioprofile 100 Plus Bioanalyzer (Nova Biomedical). H1299 (4×105) or U87 (3×105) cells were seeded in 60 mm dish for 24 hr. After the cells were washed with PBS, they were switched to 2.5 ml serum-free medium with glucose (5 mM) and glutamine (4 mM) for 12 hr. The culture or control media (without cultured cells) were centrifuged at 12,000 rpm for 1 min and run on the bioanalyzer. Cell numbers were determined by using a hemocytometer after trypan blue staining. Consumption of glucose and glutamine or production of lactate, glutamate, and NH4+ under each experimental condition was calculated by subtracting their levels in control medium and normalizing to cell numbers.\nas §1"}, "SREBP-1/2 cleavage": {"system": "SREBP-1/2 cleavage", "experiment": "Western blot of SREBP cleavage and FASN/SCD1 expression in GBM cells", "format": "cell-based, human", "settings": "for pimozide-stimulated SREBP-1 activation, FASN/SCD1 and ASCT2 expression: with pimozide 5 μM, 24 hr, GBM30, U373 or U251", "procedure": "P, precursor of SREBP; N, N-terminus of SREBP-1. C, C-terminus of SREBP-2.\n4 mM glutamine and […] pyruvate.\nas §2"}, "GBM30-derived xenograft [2]": {"system": "GBM30-derived xenograft", "settings": "mouse, in vivo", "quoted_text": "(§3) Mice were implanted with 3×10^6 GBM30 cells in flank. When tumor volume reached to 80 mm^3, pimozide (15, 30, 60 mg/kg/day) or vehicles were administered to mice via intraperitoneal injection for 14 days.\n(§4) GBM30 cells were implanted in mice to form tumor same as FIG. 12A. Mice were started treatment when tumor volume reached to ˜80 mm^3 by pimozide (15 mg/kg/day) and fatostatin (25 mg/kg/day) alone or combination for 16 days. The tumors were isolated from mice at day 14 post-treatment and imaged. Data are shown as mean±SD (n=6).\n(§5) Data are shown as mean±SD(n=6). Significance was determined by one-way ANOVA with Dunnett's multiple comparisons adjustment. *p<0.002. Tumor diameter was measured using vernier caliper and calculated as V=L×S×S/2 (S refers to short diameter, L means long diameter, V is tumor volume).\n(§6) Mice were implanted with 3×10^6 GBM30 cells in flank. When tumor volume reached to ˜80 mm^3, pimozide (15 mg/kg/day), GPNA (50 mg/kg/day), DON (0.2 mg/kg/day), or CB-839 (25 mg/kg/day) alone or in combination were administered to mice via intraperitoneal injection for 14 days.\n(§7) Data are shown as mean±SEM (n=6). Significance was determined by one-way ANOVA with Dunnett's multiple comparisons adjustment. *p<0.002."}, "GBM30-derived xenograft [3]": {"system": "GBM30-derived xenograft", "experiment": "GBM30-derived flank xenograft model", "settings": "60 mg/kg dose", "quoted_text": "as §3, §4, §5, §6, §7"}, "[4]": {"system": "normal human astrocytes (NHA)", "experiment": "Effect of PMZ on normal human astrocytes", "format": "cell-based", "settings": "doses up to 10 μM, 6 days", "procedure": "Statistical significance was analyzed by one-way ANOVA."}, "U251 cells [5]": {"system": "U251 cells", "experiment": "Confocal imaging of mitochondria and ROS (MitoTracker / CellROX Deep Red)", "format": "cell-based", "settings": "GSH 3 mM", "procedure": "ROS levels were quantified in more than 100 cells (mean±SEM). Sp<0.0001. Scale bar, 10 μm.\nDON (10 μM) or CB-839 (I00 nM) in combination as in (A) in the presence or absence of PA (palmitate, 20 μM) and OA (oleic acid, 20 μM) and cholesterol (3 μg/ml) for 24 hr."}, "U251 cells [6]": {"system": "U251 cells", "experiment": "Micrographs of U251 cell growth", "format": "cell-based", "settings": "GSH 3 mM, 48 hr", "procedure": "DON (10 μM) or CB-839 (100 nM) alone or in combination as in (A) in the presence or absence of GSH (3 mM) for 48 hr.\nMicrographs show the growth of U251 cells treated with/without pimozide (2, 3 μM), perphenazine (3, 5 μM), GPNA (1 mM), or CB-839 (100 nM). Cells were cultured in 5% FBS full medium for 24 hr. Cells were then washed with PBS twice and treated in 1% FBS with the presence of 5 mM Glucose, 4 mM Glutamine and 1 mM Pyruvate in fresh serum-free medium for 48 hr. Scale bar, 100 μm."}}, "note": "“Also recorded” adds a separate entry of the source."}
{"smiles": "CC(C)CCC[C@@H](C)[C@H]1CC[C@H]2[C@@H]3CC=C4C[C@@H](O)CC[C@]4(C)[C@H]3CC[C@]12C", "note": "[cholesterol]", "values": [{"measurement": "pimozide treatment-elevated ASCT2 expression", "setting": "ASCT2", "result": "suppressed"}]}
{"smiles": "O=C([O-])CCC(=O)C(=O)[O-].[Na+].[Na+]", "note": "[α-KG, α-Ketoglutaric acid sodium salt]", "values": [{"measurement": "SREBP-1 translocation into the nucleus", "setting": "SREBP-1 and -2 cleavage", "result": "failed to do so"}]}
{"smiles": "O=C(Cc1cccc(OC(F)(F)F)c1)Nc1ccc(CCCCc2nnc(NC(=O)Cc3ccccn3)s2)nn1", "note": "[CB-839, telaglenastat]", "values": [{"measurement": "ammonia levels in tumor tissues", "setting": "[1]", "result": "reduction"}, {"measurement": "SREBP-1 levels in tumors (IHC)", "setting": "[1]; vs vehicle", "result": "significantly reduced"}, {"measurement": "SREBP activation", "setting": "SREBP activation; CB-839 200 nM", "result": "SREBP activation inhibited by CB-839"}, {"measurement": "levels of glutamate, ammonia, and α-KG in cells and in cell culture media", "setting": "H1299 and U87 cells", "result": "dramatically reduced"}, {"measurement": "glutamine consumption", "setting": "H1299 and U87 cells", "result": "significant reduction"}, {"measurement": "pimozide-stimulated SREBP-1 activation, FASN/SCD1 and ASCT2 expression", "setting": "SREBP-1/2 cleavage", "result": "completely abolished"}]}
{"smiles": "Cl.N[C@@H](CCC(=O)Nc1ccc([N+](=O)[O-])cc1)C(=O)O", "note": "[GPNA, gamma-L-Glutamyl-p-nitroanilide Hydrochloride]", "values": [{"measurement": "levels of glutamate, ammonia, and α-KG in cells and in cell culture media", "setting": "H1299 and U87 cells", "result": "dramatically reduced"}, {"measurement": "glutamine consumption", "setting": "H1299 and U87 cells", "result": "significant reduction"}, {"measurement": "pimozide-stimulated SREBP-1 activation, FASN/SCD1 and ASCT2 expression", "setting": "SREBP-1/2 cleavage", "result": "completely abolished"}]}
{"smiles": "O=c1[nH]c2ccccc2n1C1CCN(CCCC(c2ccc(F)cc2)c2ccc(F)cc2)CC1", "note": "[pimozide]", "values": [{"measurement": "toxicity in mice", "setting": "GBM30-derived xenograft [2]", "result": "toxic"}, {"measurement": "time of treatment until mice died", "setting": "GBM30-derived xenograft [3]", "result": "6 to 8", "unit": "days"}, {"measurement": "toxic effects on normal human astrocytes", "setting": "[4]", "result": "no toxic effects"}]}
{"smiles": "N", "note": "[ammonia]", "values": [{"measurement": "restoration of SREBP activation and FASN/SCD1 expression inhibited by CB-839", "setting": "SREBP activation; 4 mM", "result": "strongly restore SREBP activation"}, {"measurement": "SREBP-1 and -2 cleavage, FASN and SCD1 expression", "setting": "SREBP-1 and -2 cleavage; in the presence of glucose 5 mM, NH4Cl, serum-free", "result": "induced SREBP-1 and -2 cleavage; also recorded: dose- and time-dependent"}, {"measurement": "SREBP-1 translocation into the nucleus", "setting": "SREBP-1 and -2 cleavage", "result": "markedly stimulated SREBP-1 translocation into the nucleus"}, {"measurement": "restoration of pimozide-stimulated SREBP-1 activation, FASN/SCD1 and ASCT2 expression", "setting": "SREBP-1/2 cleavage; NH3·H2O 4 mM, after glutamine absence, GPNA or CB-839", "result": "fully restored"}]}
{"smiles": "C[C@H](O)C(=O)[O-].[Na+]", "note": "[lactate, sodium L-lactate]", "values": [{"measurement": "SREBP-1 translocation into the nucleus", "setting": "SREBP-1 and -2 cleavage", "result": "failed to do so"}]}
{"smiles": "N[C@@H](CCC(=O)N[C@@H](CS)C(=O)NCC(=O)O)C(=O)O", "note": "[GSH]", "values": [{"measurement": "combination treatment-elevated ROS level in mitochondria", "setting": "U251 cells [5]", "result": "reduced the combination treatment-elevated ROS level in mitochondria"}, {"measurement": "combination-induced cell death", "setting": "U251 cells [6]", "result": "dramatically rescued the combination-induced cell death"}]}
{"smiles": "N[C@@H](CCC(=O)O)C(=O)[O-].O.[Na+]", "note": "[glutamate, L-Glutamic acid monosodium salt monohydrate]", "values": [{"measurement": "SREBP-1 translocation into the nucleus", "setting": "SREBP-1 and -2 cleavage", "result": "failed to do so"}]}
